Test results published in patent US11352604B2, “Method of making cardiomyocytes from human pluripotent cells” (Wisconsin Alumni Research Foundation, priority 2016, dated 2022).

Experiments:
[1] = test system: hPSC-CM sheets from replated progenitors; assay: Video edge detection / beating analysis of cardiomyocyte sheets; assay type: cell-based, human
Protocol: For quantification of spatial regularity and graphical presentation of time averaged beating in microtissue from the H9-cTnT-GFP (FIGS. 9A, C) or 19-9-11 (FIG. 9B) cell lines, .avi video files of low-powered (2.5× magnification) fields were recorded at a resolution of 1268×720 and a frame rate of 20/second. These videos were exported into a series of sequential .tiff files using Adobe Premiere, and then analyzed in MATLAB using previously described coding algorithms (Huebsch et al., 2015). Calculations of beat rate (before and after ivrabradine, […] for 2 hours, Sigma) were performed manually in the 19-9-11 cell line and multifocal patterns in untreated progenitor-derived sheets were represented as the average rate of beating for all foci present in a field.

[2] = test system: DBT, ATP5F1, SLC25A4; assay: Quantitative immunostaining of upregulated metabolic proteins; assay type: cell-based, human; conditions: hPSC-CMs from pI:C-treated vs untreated progenitors
Protocol: For internal antigens, cells were rinsed of media two times in PBS, fixed for 10 minutes in 4% paraformaldehyde at RT, rinsed three times again in PBS, then blocked for 1 hour at room temperature (RT) in Licor blocking buffer containing 0.2% Triton x-100 (Sigma). Blocking solution was aspirated and antibodies added overnight at 4° C. in fresh blocking/permeabilization solution. Antibodies used were mouse cardiac troponin T (Thermo Fisher Scientific, 1:200), rabbit WT1 (Abcam 1:200), mouse smooth muscle myosin heavy chain (Abcam, 1:200), goat Jag1 c-terminal domain (1:200 Abcam), MMP1 (Abcam, 1:200), mouse cardiac actin (Sigma, 1:200), rabbit SLC25A4 (Proteintech, 1:100), rabbit DBT (Proteintech, 1:100), rabbit ATP5F1 (Proteintech, 1:100), rabbit Irx4 (Abcam, 1:200), goat nkx2.5 (Santa Cruz, 1:50), mouse connexin 40 (Thermo Fisher Scientific, 1:200), and fibroblast-specific protein (Abcam, 1:100). After primary and secondary antibodies, cells were rinsed two times in PBS with 0.2% triton x-100. Donkey secondaries conjugated to Alexa Fluor dyes were used at 1:1000 and incubated at RT for 1 h. DAPI or Hoechst was used to visualize nuclei. Cells were imaged either on an EVOS system in wells (Thermo Fisher Scientific) or a Leica confocal microscope in cover glass or ibidi 8-well microslides. Image J was used to quantify cell area by outer boundaries of cTnT staining.

## polyinosinic-polycytidylic acid [pI:C]
[1]; primed progenitors
  contraction pattern of cell sheets from dissociated progenitors: highly organized, propagating waves of contraction
[1]; sheets from primed relative to untreated progenitors
  beat angle range: lower range
[2]
  expression of DBT, ATP5F1 and SLC25A4: increased expression
